Patent publication US20200223889A1, “Bicyclic Compounds Capable of Binding to Melanocortin 4 Receptor” (Novo Nordisk A/S, priority 2017, published 2020)
Read-outs that look alike come from different tables or passages of the source. Positions of bridges follow the written chain, without caps; N, C: chain ends. Non-standard residues stand in square brackets, D forms with d. Residues, ends and D or L forms follow the SMILES beside them. Lys(CH2CO2H)2 = N[C@@H](CCCCN(CC(=O)O)CC(=O)O)C(=O)O; Phe(3,4-(OMe)2) = COc1ccc(C[C@H](N)C(=O)O)cc1OC; Thz = O=C(O)[C@@H]1CSCN1

Tests used:
human MC4R [1] = target: T1, human MC4R (Homo sapiens, UniProt P32245); assay: 125NDP-α-MSH competitive binding to membranes of BHK cells expressing human MC4 receptor (filtration assay)
T1 construct: expressed in transfected cells
T1 sequence (P32245 whole entry): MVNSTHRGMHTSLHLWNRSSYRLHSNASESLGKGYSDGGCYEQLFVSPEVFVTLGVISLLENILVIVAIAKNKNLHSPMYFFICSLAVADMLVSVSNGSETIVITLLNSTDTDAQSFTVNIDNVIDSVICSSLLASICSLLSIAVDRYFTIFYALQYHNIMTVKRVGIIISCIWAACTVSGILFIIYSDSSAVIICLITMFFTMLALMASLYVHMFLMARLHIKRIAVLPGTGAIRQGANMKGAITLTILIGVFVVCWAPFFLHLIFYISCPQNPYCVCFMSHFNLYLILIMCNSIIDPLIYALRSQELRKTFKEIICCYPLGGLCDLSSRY
Summary of the method: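 Displacement of ^125NDP-α-MSH (apx. […] final) was measured by filtration after 2 h at 25 °C, using diluted membranes of stably transfected BHK cells in pH 7.0 HEPES buffer. Compounds spanned 1 μM to 0.001 nM; binding curves were analysed by non-linear regression.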

human MC4R [2] = target: T1, human MC4R; assay: Functional cAMP assay (CisBio HTRF) in BHK cells expressing human MC4R; type: cell-based; settings: for MC1R/MC4R cAMP EC50 ratio: MC1R cAMP EC50 divided by MC4R cAMP EC50
Summary of the method: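 Stably transfected BHK cells expressing human MC1R or MC4R; cAMP quantified by HTRF (cAMP-d2/cryptate) after 30 min compound stimulation at 25 °C in DMEM-based buffer with 1 mM IBMX. Compounds were prepared as 10-fold serial dilutions starting at 2 μM (working solution, 2× final). Readout after 1 h at 25 °C; non-linear regression.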

human MC1R = target: T2, human MC1R (Homo sapiens, UniProt Q01726); assay: Functional cAMP assay (CisBio HTRF) in BHK cells expressing human MC1R; type: cell-based
T2 construct: expressed in transfected cells
T2 sequence (Q01726 whole entry): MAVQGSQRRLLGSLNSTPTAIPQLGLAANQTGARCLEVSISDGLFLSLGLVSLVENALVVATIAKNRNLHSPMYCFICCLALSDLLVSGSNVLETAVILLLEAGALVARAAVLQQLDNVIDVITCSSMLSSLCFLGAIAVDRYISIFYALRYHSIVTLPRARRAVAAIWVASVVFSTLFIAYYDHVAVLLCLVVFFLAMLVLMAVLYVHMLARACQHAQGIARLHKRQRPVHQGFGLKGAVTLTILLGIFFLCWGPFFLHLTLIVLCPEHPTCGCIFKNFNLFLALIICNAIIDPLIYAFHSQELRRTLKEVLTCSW
Experimental: In order to assess the potency of the compounds on human MC1R and human MC4R cAMP signalling was measured.
cAMP induction was measured by c-AMPdynamic2 assay, HTRF 62AM4PEC system from CisBio for the human MC1R and human MC4R according to the protocol provided by the vendor. BHK cells expressing the human MC1 or MC4 receptor were generated by stable transfection with expression vectors encoding the cDNA of either MC1R or MC4R.
In details; 25 μl compound—or standard solution were added in the respective wells. Compound was reconstituted in buffer (DMEM w/o phenol red, 10 mM
Hepes, lx Glutamine, 0.1% OV-albumin1, 1 mM IBMX) and serially diluted starting at 2 μM, 10-fold seven times. Dilutions were carried out in the same aforementioned buffer to the desired working concentration ranges (2× higher than the final concentration). 25 μl cell solution was then added and allowed to incubate for 30 min while lightly shaking, at 25° C. […] The provided components for the assay were reconstituted according to the CisBio assay protocol “3.1 supplied reagents and preparation procedure” in MilliQ purification system H2O and diluted 1:20 in lysis buffer. 25 μl cAMP-d2 and 25 μl Cryptate conjugate were added to all wells.
Plates were centrifuged at 1500 rpm for 30 sec and incubated for 1 h, lightly shaking, at 25° C. in a hotel stacker. The plates were read on Mithras LB 940 provided by Berthold Technologies The data were analysed by non-linear regression analysis of binding curves, using the Windows™ program GraphPad™ Prism (GraphPad Software, USA).
The latter is used when no full curve can be obtained in the concentration ranges indicated above.

[3] = human MC4R, BHK cell membranes, 125NDP-α-MSH radioligand, read-out: MC4R binding Ki
[4] = BHK cells expressing human MC4R, '>' = highest dose used with no response, read-out: MC4R cAMP EC50
[5] = BHK cells expressing human MC1R, '>' = highest dose used with no response, read-out: MC1R cAMP EC50

Ki (human MC4R [1]; [3])	EC50 (human MC4R [2]; [4])	EC50 (human MC1R; [5])	SMILES	MC1R/MC4R cAMP EC50 ratio (human MC4R [2])	Ki (human MC4R [1])	EC50 (human MC4R [2])	EC50 (human MC1R)
0.08 nM	0.02 nM	1.76 nM	C[C@@H]1NC(=O)[C@@H]2CSCSC[C@H](NC(=O)[C@H](Cc3c[nH]c4ccccc34)NC(=O)[C@H](CCCNC(=N)N)NC(=O)[C@@H](Cc3ccccc3)NC(=O)[C@H](Cc3c[nH]cn3)NC1=O)C(=O)N[C@@H](C)C(=O)N[C@@H](Cc1c[nH]cn1)C(=O)N[C@H](Cc1ccccc1)C(=O)N[C@@H](CCCNC(=N)N)C(=O)N[C@@H](Cc1c[nH]c3ccccc13)C(=O)N2 [Chem. 8, c[c[Cys-Ala-His-D-Phe-Arg-Trp-Cys]- Ala-His-D-Phe-Arg-Trp]]	88	–	–	–
–	–	–	C[C@H]1NC(=O)[C@@H]2CSSC[C@H](NC(=O)[C@H](Cc3c[nH]c4ccccc34)NC(=O)[C@H](CCCNC(=N)N)NC(=O)[C@@H](Cc3ccccc3)NC(=O)[C@H](Cc3c[nH]cn3)NC1=O)C(=O)N[C@H](C)C(=O)N[C@@H](Cc1c[nH]cn1)C(=O)N[C@H](Cc1ccccc1)C(=O)N[C@@H](CCCNC(=N)N)C(=O)N[C@@H](Cc1c[nH]c3ccccc13)C(=O)N2 [Chem. 10, c[c[Cys-D-Ala-His-D-Phe-Arg-Trp- Cys]-D-Ala-His-D-Phe-Arg-Trp]]	98	0.13 nM	0.05 nM	4.88 nM
–	–	–	C[C@@H]1NC(=O)[C@H](C)NC(=O)[C@@H]2CSSC[C@H](NC(=O)[C@H](Cc3c[nH]c4ccccc34)NC(=O)[C@H](C)NC(=O)[C@@H](Cc3ccccc3)NC1=O)C(=O)N[C@@H](C)C(=O)N[C@@H](Cc1c[nH]cn1)C(=O)N[C@H](Cc1ccccc1)C(=O)N[C@@H](CCCNC(=N)N)C(=O)N[C@@H](Cc1c[nH]c3ccccc13)C(=O)N2 [Chem. 11, c[[Cys-Ala-His-D-Phe-Arg-Trp-Cys]- Ala-Ala-D-Phe-Ala-Trp]] (cyclo(AA[dF]AWCAH[dF]RWC); disulfide 6-12)	72	0.25 nM	0.03 nM	2.17 nM
–	–	–	C[C@@H]1NC(=O)[C@@H]2CSSC[C@H](NC(=O)[C@H](Cc3c[nH]c4ccccc34)NC(=O)[C@H](CCCNC(=N)N)NC(=O)[C@@H](Cc3ccccc3)NC(=O)[C@H](Cc3c[nH]cn3)NC1=O)C(=O)N[C@@H](CCCNC(=N)N)C(=O)N[C@@H](Cc1ccccc1)C(=O)N[C@@H](Cc1ccccc1)C(=O)N[C@@H](CC(N)=O)C(=O)N[C@@H](C)C(=O)N2 [Chem. 12, c[c[Cys-Ala-His-D-Phe-Arg-Trp-Cys]- Arg-Phe-Phe-Asn-Ala]] (cyclo(ACAH[dF]RWCRFFN); disulfide 2-8)	57	0.28 nM	0.07 nM	3.97 nM
–	–	–	C[C@@H]1NC(=O)[C@@H]2CSSC[C@H](NC(=O)[C@H](Cc3c[nH]c4ccccc34)NC(=O)[C@H](CCCNC(=N)N)NC(=O)[C@@H](Cc3ccccc3)NC(=O)[C@H](Cc3c[nH]cn3)NC1=O)C(=O)N[C@@H](CCCNC(=N)N)C(=O)N[C@@H](Cc1ccccc1)C(=O)N[C@@H](Cc1ccccc1)C(=O)N[C@@H](CC(N)=O)C(=O)N[C@@H](C)C(=O)N[C@@H](Cc1ccccc1)C(=O)N2 [Chem. 13, c[c[Cys-Ala-His-D-Phe-Arg-Trp-Cys]- Arg-Phe-Phe-Asn-Ala-Phe]] (cyclo(AFCAH[dF]RWCRFFN); disulfide 3-9)	64	0.26 nM	0.1 nM	6.36 nM
0.06 nM	0.02 nM	0.22 nM	C[C@@H]1NC(=O)[C@@H]2CSSC[C@H](NC(=O)[C@H](Cc3c[nH]c4ccccc34)NC(=O)[C@H](CCCCNC(=N)N)NC(=O)[C@@H](Cc3ccccc3)NC(=O)[C@H](Cc3c[nH]cn3)NC1=O)C(=O)N[C@@H](C)C(=O)N[C@@H](Cc1c[nH]cn1)C(=O)N[C@H](Cc1ccccc1)C(=O)N[C@@H](CCCCNC(=N)N)C(=O)N[C@@H](Cc1c[nH]c3ccccc13)C(=O)N2 [Chem. 22, c[c[Cys-Ala-His-D-Phe-HArg-Trp- Cys]-Ala-His-D-Phe-HArg-Trp]]	11	–	–	–
–	–	> 55 nM	COc1ccc(C[C@@H]2NC(=O)[C@H](CCCNC(=N)N)NC(=O)[C@@H](Cc3ccccc3)NC(=O)[C@H](Cc3c[nH]cn3)NC(=O)[C@H](C)NC(=O)[C@@H]3CSSC[C@H](NC2=O)C(=O)N[C@@H](C)C(=O)N[C@@H](CCCCN)C(=O)N[C@@H](CCCCN)C(=O)N[C@@H](CCCCN)C(=O)N[C@@H](Cc2c[nH]c4ccccc24)C(=O)N3)cc1OC [Chem. 67, c[c[Cys-Ala-His-D-Phe-Arg-3,4- DiMeo-Phe-Cys]-Ala-Lys-Lys-Lys- Trp]] (cyclo(AH[dF]R[Phe(3,4-(OMe)2)]CAKKKWC); disulfide 6-12)	>18	–	–	–
–	–	–	O=C1N[C@H]2CSSC[C@H](NC(=O)[C@H](Cc3c[nH]c4ccccc34)NC(=O)[C@H](Cc3c[nH]cn3)NC(=O)[C@@H](Cc3ccccc3)NC(=O)[C@H](Cc3c[nH]cn3)NC(=O)[C@@H]3CSCN3C2=O)C(=O)N2CSC[C@H]2C(=O)N[C@@H](Cc2c[nH]cn2)C(=O)N[C@H](Cc2ccccc2)C(=O)N[C@@H](Cc2c[nH]cn2)C(=O)N[C@H]1Cc1c[nH]c2ccccc12 [Chem. 91, c[c[Cys-THAZ-His-D-Phe-His-Trp- Cys]-THAZ-His-D-Phe-His-Trp]] (cyclo(C[Thz]H[dF]HWC[Thz]H[dF]HW); disulfide 1-7)	>14	–	–	> 10 nM
–	–	–	C[C@@H]1NC(=O)[C@H](C)NC(=O)[C@@H]2CSSC[C@H](NC(=O)[C@H](Cc3c[nH]c4ccccc34)NC(=O)[C@H](C)NC(=O)[C@H](CCCCN(CC(=O)O)CC(=O)O)NC1=O)C(=O)N1CSC[C@H]1C(=O)N[C@@H](Cc1c[nH]cn1)C(=O)N[C@H](Cc1ccccc1)C(=O)N[C@@H](Cc1c[nH]cn1)C(=O)N[C@@H](Cc1c[nH]c3ccccc13)C(=O)N2 [Chem. 104, c[c[Cys-THAZ-His-D-Phe-His-Trp- Cys]-Ala-Ala-Lys(CH2COOH)2-Ala- Trp]] (cyclo(AA[Lys(CH2CO2H)2]AWC[Thz]H[dF]HWC); disulfide 6-12)	167	–	0.6 nM	> 100 nM
–	–	–	C[C@@H]1NC(=O)[C@H](CCC(=O)O)NC(=O)[C@H](CCC(=O)O)NC(=O)[C@H](C)NC(=O)[C@@H]2CSSC[C@H](NC(=O)[C@H](Cc3c[nH]c4ccccc34)NC1=O)C(=O)N1CSC[C@H]1C(=O)N[C@@H](Cc1c[nH]cn1)C(=O)N[C@H](Cc1ccccc1)C(=O)N[C@@H](Cc1c[nH]cn1)C(=O)N[C@@H](Cc1c[nH]c3ccccc13)C(=O)N2 [Chem. 105, c[c[Cys-THAZ-His-D-Phe-His-Trp- Cys]-Ala-Glu-Glu-Ala-Trp]] (cyclo(AEEAWC[Thz]H[dF]HWC); disulfide 6-12)	>15	–	–	> 100 nM
–	–	–	C[C@@H]1NC(=O)[C@H](CC(=O)O)NC(=O)[C@H](CC(=O)O)NC(=O)[C@H](C)NC(=O)[C@@H]2CSSC[C@H](NC(=O)[C@H](Cc3c[nH]c4ccccc34)NC1=O)C(=O)N1CSC[C@H]1C(=O)N[C@@H](Cc1c[nH]cn1)C(=O)N[C@H](Cc1ccccc1)C(=O)N[C@@H](Cc1c[nH]cn1)C(=O)N[C@@H](Cc1c[nH]c3ccccc13)C(=O)N2 [Chem. 106, c[c[Cys-THAZ-His-D-Phe-His-Trp- Cys]-Ala-Asp-Asp-Ala-Trp]] (cyclo(ADDAWC[Thz]H[dF]HWC); disulfide 6-12)	>10	–	10.6 nM	> 100 nM
–	–	–	C[C@@H]1NC(=O)[C@H](CCC(=O)O)NC(=O)[C@H](CC(=O)O)NC(=O)[C@H](C)NC(=O)[C@@H]2CSSC[C@H](NC(=O)[C@H](Cc3c[nH]c4ccccc34)NC1=O)C(=O)N1CSC[C@H]1C(=O)N[C@@H](Cc1c[nH]cn1)C(=O)N[C@H](Cc1ccccc1)C(=O)N[C@@H](Cc1c[nH]cn1)C(=O)N[C@@H](Cc1c[nH]c3ccccc13)C(=O)N2 [Chem. 107, c[c[Cys-THAZ-His-D-Phe-His-Trp- Cys]-Ala-Asp-Glu-Ala-Trp]] (cyclo(ADEAWC[Thz]H[dF]HWC); disulfide 6-12)	>10	–	10.6 nM	> 100 nM
–	–	–	C[C@@H]1NC(=O)[C@H](CC(=O)O)NC(=O)[C@H](CCC(=O)O)NC(=O)[C@H](C)NC(=O)[C@@H]2CSSC[C@H](NC(=O)[C@H](Cc3c[nH]c4ccccc34)NC1=O)C(=O)N1CSC[C@H]1C(=O)N[C@@H](Cc1c[nH]cn1)C(=O)N[C@H](Cc1ccccc1)C(=O)N[C@@H](Cc1c[nH]cn1)C(=O)N[C@@H](Cc1c[nH]c3ccccc13)C(=O)N2 [Chem. 108, c[c[Cys-THAZ-His-D-Phe-His-Trp- Cys]-Ala-Glu-Asp-Ala-Trp]] (cyclo(AEDAWC[Thz]H[dF]HWC); disulfide 6-12)	>40	–	–	> 100 nM
